Columns and labels:
cruzain = cruzain (Trypanosoma cruzi, UniProt P25779); test: biochemical; details: for Cruzain 0’ Inhibition / Cruzain 10’ Inhibition: sheet "Screening results"
Procedure: (§1) Allison Doak and Prof. Brian Shoichet (University of California San Francisco, San Francisco, CA, USA) and Prof. Conor Caffrey (University of California San Diego, San Diego, CA, USA) generously provided recombinant cruzain and TbrCatL, respectively. In vitro activity of proteases cruzain and TbrCatL was assayed as previously described. Briefly, enzyme activity was measured by monitoring the cleavage of the fluorogenic substrate […] (Z-FR-AMC) at 25 °C. Fluorescence was monitored at 340/440 nm (excitation/emission) over 5–7 min in a Synergy2 Biotek plate reader. […] DMSO and 1 μM E-64 were employed as negative and positive controls, respectively, in all assays. Two conditions were employed for both enzymes: 10′ pre-incubation of the enzyme in the presence of the compound (10′ inc) and no pre-incubation (0′). Reported values correspond to the mean and standard error of the mean (SEM) and all analyses were performed using GraphPad Prism 6.0.
(§2) For the initial screening, compounds were assayed at 5 μM. […] IC50 curves were obtained from a non-linear fit of at least seven distinct compound concentrations, in triplicate. Reported IC50 values are the mean and SEM of two independent measurements.

TbrCatL = molecular target: T1, TbrCatL (Trypanosoma brucei rhodesiense, UniProt Q95PM0); test: TbrCatL enzymatic inhibition assay (cleavage of fluorogenic substrate Z-FR-AMC); assay type: biochemical; details: for TbrCatL 0’ Inhibition / TbrCatL 10’ Inhibition: sheet "Screening results"
T1 construct: Conor Caffrey (University of California San Diego)
T1 sequence (Q95PM0 entry or part of it): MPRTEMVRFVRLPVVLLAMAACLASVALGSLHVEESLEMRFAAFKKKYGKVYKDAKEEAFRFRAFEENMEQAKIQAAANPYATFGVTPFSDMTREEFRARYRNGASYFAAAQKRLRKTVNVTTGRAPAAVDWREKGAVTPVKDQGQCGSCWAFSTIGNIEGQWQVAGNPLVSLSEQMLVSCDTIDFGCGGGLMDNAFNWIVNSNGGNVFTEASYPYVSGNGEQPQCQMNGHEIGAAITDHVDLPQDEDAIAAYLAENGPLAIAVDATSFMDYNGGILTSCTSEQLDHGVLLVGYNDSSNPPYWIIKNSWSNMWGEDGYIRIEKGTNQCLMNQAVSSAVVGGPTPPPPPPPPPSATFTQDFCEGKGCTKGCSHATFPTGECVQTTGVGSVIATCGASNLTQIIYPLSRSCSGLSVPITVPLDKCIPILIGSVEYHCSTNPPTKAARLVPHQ
Procedure: as §1, §2

[1] = 0’ (no pre-incubation), sheet Screening results
[2] = 10’ (pre-incubation), sheet Screening results
[3] = 0’ (pre-incubation time), Pathogen Box screening results
[4] = 10’ (pre-incubation time), Pathogen Box screening results
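Further: at 5 µM compound concentration.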

Chain of cruzain (P25779 123-337 limits assumed): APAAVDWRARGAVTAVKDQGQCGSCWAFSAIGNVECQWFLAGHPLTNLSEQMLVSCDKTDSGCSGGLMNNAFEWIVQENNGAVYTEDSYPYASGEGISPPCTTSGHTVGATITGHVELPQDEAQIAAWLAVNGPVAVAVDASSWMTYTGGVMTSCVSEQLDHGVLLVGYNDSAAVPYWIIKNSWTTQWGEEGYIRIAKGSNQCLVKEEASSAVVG

Structure (SMILES)	Cruzain 0’ Inhibition (cruzain; 0’ (pre-incubation time))	Cruzain 10’ Inhibition (cruzain; 10’ (pre-incubation time))	TbrCatL 0’ Inhibition (TbrCatL; 0’ (pre-incubation time))	TbrCatL 10’ Inhibition (TbrCatL; 10’ (pre-incubation time))	also measured
O=C(NC1CCN(c2ccnc3ccccc23)C1)c1cccc(C(F)(F)F)c1 (stereo not drawn) [MMV023388]	8%	14%	10%	13%	–
NS(=O)(=O)c1cccc(-c2ccc3ncc(N4CCOCC4)nc3c2)c1 [MMV023860]	-5.3%	28%	-1.3%	14%	–
CC(C)(C)c1cc(C(=O)N2CCN(c3nccnc3C#N)CC2)n(Cc2ccccc2)n1 [MMV023949]	-0.2%	6%	12%	-3%	–
O=C(Nc1cccc(-c2ccc(NCCCN3CCCC3)nc2)c1)c1ccccc1 [MMV023953]	8%	11%	12%	7%	–
c1cncc(NCc2ccc(-c3cc4ccncc4cc3OC3CCNCC3)s2)c1 [MMV023969]	29%	31%	19%	17%	–
COc1ccc(-c2cnc3ccc(N4CCCC4)nn23)cc1OC [MMV023985]	-3.2%	-13%	-7%	-1%	–
O=C(Nc1ccccc1)c1ccc(-c2cc3ccncc3cc2OC2CCNCC2)s1 [MMV024035]	5%	-6.5%	-3%	-5%	–
NS(=O)(=O)c1cncc(-c2ccc3nccc(-c4cn[nH]c4)c3n2)c1 [MMV024101]	7%	26%	6%	34%	–
Cc1ccc(S(=O)(=O)n2cc(-c3ccnc(N)c3)c3cc(Br)cnc32)cc1 [MMV024114]	-9%	15%	-5%	1.6%	–
CN(C)CCNC(=O)N1CCCN(c2ncnc3cc(-c4ccccc4)sc23)CC1 [MMV024195]	-3.2%	1.9%	1.1%	-1.4%	–
Cc1ccc2[nH]c(C3CCCNC3)c(-c3ccncc3)c2c1 (stereo not drawn) [MMV024311]	-7.4%	15%	-12%	12%	–
O=C(NC1CC1)c1ccc(N2CCC(Cc3ccccc3)CC2)nc1 [MMV024397]	–	–	–	–	Cruzain Inhibition 0’ (cruzain; [1]): 3%; Cruzain Inhibition 10’ (cruzain; [2]): 6%; TbrCatL Inhibition 0’ (TbrCatL; [1]): 2.6%; TbrCatL Inhibition 10’ (TbrCatL; [2]): 2.6%
O=C(Nc1cccc(Cl)c1)c1cnc(N2CCN(c3ccncc3)CC2)c(Cl)c1 [MMV024406]	17%	25%	3%	20%	–
CN(C(=O)c1cc2c(-c3cncnc3)cccc2[nH]1)c1ccccc1 [MMV024443]	5%	2.7%	-4.6%	-3.8%	–
Cc1cccc(C(=O)Nc2ccnc(N(C)C3CCN(CC(C)C)CC3)c2)c1 [MMV024829]	9%	7%	4%	7%	–
O=C(Nc1ccc(N2CCNCC2)nc1)c1oc(-c2ccccc2)nc1C(F)(F)F [MMV024937]	5.6%	14%	20%	23%	–
CS(=O)(=O)c1cccc(-c2cnc3[nH]cc(-c4ccc(CCC(=O)O)cc4)c3c2)c1 [MMV026020]	–	–	–	–	Cruzain Inhibition 0’ (cruzain; [1]): 12%; Cruzain Inhibition 10’ (cruzain; [2]): 17%; TbrCatL Inhibition 0’ (TbrCatL; [1]): 15%; TbrCatL Inhibition 10’ (TbrCatL; [2]): 20%
Nc1nccc2ccc(Oc3ccncc3)cc12 [MMV026313]	–	–	–	–	Cruzain Inhibition 0’ (cruzain; [3]): -0.8%; Cruzain Inhibition 10’ (cruzain; [4]): 8%; TbrCatL Inhibition 0’ (TbrCatL; [3]): 0.4%; TbrCatL Inhibition 10’ (TbrCatL; [4]): 19%
CCn1ncc2c(NC3CCOCC3)c(CNC(=O)c3ccnn3C)c(C)nc21 [MMV026356]	-0.3%	1.1%	-6%	-7%	–
OCc1ccc(-c2cncc(Nc3cccc(Cl)c3)c2)cc1 [MMV026468]	0%	2.8%	1.7%	2.7%	–

Structure (SMILES)	Cruzain 0’ Inhibition (cruzain; 0’ (pre-incubation time))	Cruzain 10’ Inhibition (cruzain; 10’ (pre-incubation time))	TbrCatL 0’ Inhibition (TbrCatL; 0’ (pre-incubation time))	TbrCatL 10’ Inhibition (TbrCatL; 10’ (pre-incubation time))	also measured
O=C(NCCc1ccccc1)c1cc(-c2cccnc2)cnc1NCC1CC1 [MMV026490]	-1.3%	-5%	0.1%	-13%	–
CC(C)(C)CN1C(=O)C(c2ccccc2)(c2ccccc2)N=C1N [MMV026550]	0%	2.8%	-5%	0.2%	–
OCCc1ccc(Nc2nccc(-c3nnc4ccccn34)n2)cc1 [MMV028694]	7%	14%	8%	13%	–
CC(C)(CN)c1nc(-c2ccc(Cl)c(O)c2)c(-c2ccnc(N)n2)[nH]1 [MMV030734]	5%	-5.6%	7.5%	-9.5%	–
CNC(=O)C1Cc2c([nH]c3cc(Cl)ccc23)C2(CCN(CCc3ccccc3)CC2)N1 (stereo not drawn) [MMV031011]	-7.5%	-0.7%	-11%	-8%	–
FC(F)(F)c1cccc(-c2nc3c(NCc4ccncc4)nccc3[nH]2)c1 [MMV032967]	-4.6%	-2.4%	-7%	1.3%	–
O=C1COCc2ccc(Br)cc2N1Cc1ccc(C(F)(F)F)cc1 [MMV032995]	-5%	0.2%	-7%	-7%	–
c1ccc(Oc2ccc(-c3cc(N4CCOCC4)n[nH]3)cc2)cc1 [MMV045105]	1.3%	29%	2%	22%	–
COc1cc(C(F)(F)F)nc2ccc(C)c(N)c12 [MMV047015]	1.1%	5.5%	15%	4%	–
N#Cc1ccc(-c2ccc(OCC(N)=O)cc2)cc1 [MMV053220]	–	–	–	–	Cruzain Inhibition 0’ (cruzain; [1]): -9%; Cruzain Inhibition 10’ (cruzain; [2]): -5%; TbrCatL Inhibition 0’ (TbrCatL; [1]): -5.7%; TbrCatL Inhibition 10’ (TbrCatL; [2]): -7%
CC(=O)N1CCc2cc3nc(C)cc(C)c3cc21 [MMV054312]	–	–	–	–	Cruzain Inhibition 0’ (cruzain; [1]): 10%; Cruzain Inhibition 10’ (cruzain; [2]): 11%; TbrCatL Inhibition 0’ (TbrCatL; [1]): 9%; TbrCatL Inhibition 10’ (TbrCatL; [2]): 19%
Cc1cc(C)nc(-n2nc(C)cc2Nc2ccccc2)n1 [MMV062221]	-21%	-3%	-32%	-72%	–
Cc1nn(Cc2ccccc2)c(Cl)c1C(=O)NC1CCCCCC1 [MMV063404]	–	–	–	–	Cruzain Inhibition 0’ (cruzain; [1]): 11%; Cruzain Inhibition 10’ (cruzain; [2]): 7.6%; TbrCatL Inhibition 0’ (TbrCatL; [1]): 7.6%; TbrCatL Inhibition 10’ (TbrCatL; [2]): 2%
FC(F)(F)c1nnc2ccc(Cl)nn12 [MMV069458]	–	–	–	–	Cruzain Inhibition 0’ (cruzain; [1]): 2%; Cruzain Inhibition 10’ (cruzain; [2]): -4%; TbrCatL Inhibition 0’ (TbrCatL; [1]): 4%; TbrCatL Inhibition 10’ (TbrCatL; [2]): 0%
O=C1N(Cc2cc3ccccc3s2)CC2CN(Cc3ccccc3)CCN12 (stereo not drawn) [MMV084603]	–	–	–	–	Cruzain Inhibition 0’ (cruzain; [1]): 7.6%; Cruzain Inhibition 10’ (cruzain; [2]): 6.4%; TbrCatL Inhibition 0’ (TbrCatL; [1]): 18%; TbrCatL Inhibition 10’ (TbrCatL; [2]): 4.6%
O=C(Nc1cnc2ccccc2c1)c1cccc(-n2cnnn2)c1 [MMV084864]	–	–	–	–	Cruzain Inhibition 0’ (cruzain; [3]): 0%; Cruzain Inhibition 10’ (cruzain; [4]): 11%; TbrCatL Inhibition 0’ (TbrCatL; [3]): -11%; TbrCatL Inhibition 10’ (TbrCatL; [4]): 5%
COc1cncc(-c2cncc(N3CCN(c4ccncc4)CC3)n2)c1 [MMV085071]	3.8%	-19%	-0.1%	-10%	–
O=C(C(Cc1c[nH]c2ccccc12)NS(=O)(=O)c1ccc(Cl)cc1)N1CCCCC1 (stereo not drawn) [MMV085210]	–	–	–	–	Cruzain Inhibition 0’ (cruzain; [1]): 4.5%; Cruzain Inhibition 10’ (cruzain; [2]): 6.5%; TbrCatL Inhibition 0’ (TbrCatL; [1]): 11%; TbrCatL Inhibition 10’ (TbrCatL; [2]): 8%
CCCNC(=O)N1CCC2(CC1)CC(=O)c1cc(C)ccc1O2 [MMV085230]	15%	18%	8.5%	13%	–
